Reference: patent US6858591B2, “Antibiotic AA 896 analogs” (Wyeth Holdings Corporation, priority 2001, dated 2005)
Converted amounts (≈) assume the structure as drawn. Where two headings read alike, the source gives them in different places.

Experiments:
Assay in all cases: In vitro MIC, broth dilution
Assay type in all cases: cell-based
[1] = system: E. cloacae GC 3783; conditions: Enterobacter cloacae, GC3783
[2] = system: M. morganii GC 4531; conditions: Morganella morganii, GC4531
[3] = system: E. coli GC 2203; conditions: Escherichia coli, GC2203
[4] = system: K. pneumoniae GC 4534; conditions: Klebsiella pneumoniae, GC4534
[5] = system: E. faecalis GC 4555; conditions: Enterococcus faecalis, GC4555
Procedure, shortened: (§1)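 Susceptibility testing used the NCCLS broth dilution method. Antibiotic spanned 64-0.06 μg/ml against an inoculum of 5×10^5 CFU/ml in Mueller-Hinton II; after 18 hours at 35° C the lowest concentration without growth gave the MIC.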

[6] = system: CNS GC 4547
Procedure, shortened: as §1

[7] = system: CNS GC 4538
Procedure, shortened: as §1

[8] = system: S. aureus GC 1131; conditions: Staphylococcus aureus, GC1131
Procedure, shortened: as §1

[9] = system: E. faecalis GC 2242; conditions: Enterococcus faecalis, GC2242
Procedure, shortened: as §1

[10] = system: CNS GC 4537
Procedure, shortened: as §1

[11] = system: S. aureus GC 2216; conditions: Staphylococcus aureus, GC2216
Procedure, shortened: as §1

[12] = system: S. aureus GC 4536; conditions: Staphylococcus aureus, GC4536
Procedure, shortened: as §1

[13] = system: E. faecalis GC 842; conditions: Enterococcus faecalis, GC842
Procedure, shortened: as §1

[14] = system: P. aeruginosa GC 2214; conditions: Pseudomonas aeruginosa, GC2214
[15] = system: S. marcescens GC 4077; conditions: Serratia marcescens, GC4077
[16] = system: E. coli GC 4560; conditions: Escherichia coli, GC4560
[17] = system: C. albicans GC 3066; conditions: Candida albicans, GC3066
[18] = system: E. coli GC 3226; conditions: Escherichia coli, GC3226
[19] = system: P. aeruginosa GC 4532; conditions: Pseudomonas aeruginosa, GC4532
[20] = system: E. coli GC 4559; conditions: Escherichia coli, GC4559
[21] = E. cloacae GC 3783, read-out: MIC
[22] = M. morganii GC 4531, read-out: MIC
[23] = K. pneumoniae GC 4534, read-out: MIC
[24] = E. faecalis GC 4555, read-out: MIC
[25] = S. aureus GC 1131, read-out: MIC
[26] = E. faecalis GC 2242, read-out: MIC
[27] = S. aureus GC 2216, read-out: MIC
[28] = S. aureus GC 4536, read-out: MIC
[29] = E. faecalis GC 842, read-out: MIC
[30] = P. aeruginosa GC 2214, read-out: MIC
[31] = S. marcescens GC 4077, read-out: MIC
[32] = C. albicans GC 3066, read-out: MIC
[33] = P. aeruginosa GC 4532, read-out: MIC

| Compound | MIC [1] [µg/mL] | MIC [2] [µg/mL] | MIC [3] [µg/mL] | MIC [4] [µg/mL] | MIC [5] [µg/mL] | MIC [6] [µg/mL] | MIC [7] [µg/mL] | MIC [8] [µg/mL] | MIC [9] [µg/mL] | MIC [10] [µg/mL] | MIC [11] [µg/mL] | MIC [12] [µg/mL] | MIC [13] [µg/mL] | MIC [14] [µg/mL] | MIC [15] [µg/mL] | MIC [16] [µg/mL] | MIC [17] [µg/mL] | MIC [18] [µg/mL] | MIC [19] [µg/mL] | MIC [20] [µg/mL] | other results |
| --- | --- | --- | --- | --- | --- | --- | --- | --- | --- | --- | --- | --- | --- | --- | --- | --- | --- | --- | --- | --- | --- |
| COc1ccc(Cn2c(=O)ccn([C@@H]3OC([C@H](O)[C@H](NCCCNC(=O)[C@H](CCC(=O)OC(C)(C)C)NC(=O)OCc4ccccc4)C(=O)OC(C)(C)C)[C@@H](O[Si](C)(C)C(C)(C)C)[C@H]3O[Si](C)(C)C(C)(C)C)c2=O)cc1 (stereo partly drawn) [Example 20, tert-Butyl (5S,12S)-12-[(R)-[(3R,4R,5R)-3,4-bis{[tert-butyl(dimethyl)silyl]oxy}-5-(3-(4-methoxybenzyl)-2,4-dioxo-3,4-dihydro-1(2H)-pyrimidinyl)tetrahydro-2-furanyl](hydroxy)methyl]-5-[3-(tert-butoxy)-3-oxopropyl]-3,6-dioxo-1-phenyl-2-oxa-4,7,11-triazatridecan-13-oate] | > 128 | > 128 | > 128 | > 128 | > 128 | > 128 | > 128 | > 128 | > 128 | > 128 | > 128 | > 128 | > 128 | 128 (≈ 117 µM) | > 128 | > 128 | 128 (≈ 117 µM) | > 128 | 128 (≈ 117 µM) | > 128 |  |
| COc1ccc(Cn2c(=O)ccn([C@@H]3OC([C@H](O)[C@H](NCCCNC(=O)[C@@H](NC(=O)[C@H](CCCNC(=N)N[N+](=O)O)NC(=O)N[C@H](C(=O)OCc4ccccc4)C(C)C)[C@@H](O)C(C)C)C(=O)OC(C)(C)C)[C@@H](O[Si](C)(C)C(C)(C)C)[C@H]3O[Si](C)(C)C(C)(C)C)c2=O)cc1 (stereo partly drawn) [Example 26, 1-Benzyl 17-(tert-butyl)(2S,6S,9S,16S)-16-[(R)-[(3R,4R,5R)-3,4-bis{[tert-butyl(dimethyl)silyl]oxy}-5-(3-(4-methoxybenzyl)-2,4-dioxo-3,4-dihydro-1(2H)-pyrimidinyl)tetrahydro-2-furanyl](hydroxy)methyl]-6-(3-{[(2,2-dioxido-2lambda˜1˜-diazanyl)(imino)methyl]amino}propyl)-9-[(1S)-1-hydroxy-2-methylpropyl]-2-isopropyl-4,7,10-trioxo-3,5,8,11,15-pentaazaheptadecane-1,17-dioate] | > 128 | > 128 | > 128 | > 128 | > 128 | > 128 | > 128 | > 128 | 128 | > 128 | > 128 | > 128 | > 128 | 128 | > 128 | > 128 | > 128 | > 128 | > 128 | > 128 |  |
| COc1ccc(Cn2c(=O)ccn([C@@H]3OC([C@H](O)[C@H](NCCCNC(=O)[C@H](CCCCNC(=O)OCc4ccccc4)NC(=O)OCc4ccccc4)C(=O)OC(C)(C)C)[C@@H](O[Si](C)(C)C(C)(C)C)[C@H]3O[Si](C)(C)C(C)(C)C)c2=O)cc1 (stereo partly drawn) [Example 18, tert-Butyl (9S,16S)-9-{[(benzyloxy)carbonyl]amino}-16-[(R)-[(3R,4R,5R)-3,4-bis{[tert-butyl(dimethyl)silyl]oxy}-5-(3-(4-methoxybenzyl)-2,4-dioxo-3,4-dihydro-1(2H)-pyrimidinyl)tetrahydro-2-furanyl](hydroxy)methyl]-3,10-dioxo-1-phenyl-2-oxa-4,11,15-triazaheptadecan-17-oate] | > 128 | > 128 | > 128 | > 128 | > 128 | > 128 | > 128 | > 128 | 128 (≈ 109 µM) | > 128 | > 128 | > 128 | > 128 | > 128 | > 128 | > 128 | > 128 | > 128 | > 128 | > 128 |  |
| COc1ccc(Cn2c(=O)ccn([C@@H]3OC([C@H](O)[C@H](NCCCNC(=O)[C@@H](NC(=O)OCc4ccccc4)[C@@H](O)C(C)C)C(=O)OC(C)(C)C)[C@@H](O[Si](C)(C)C(C)(C)C)[C@H]3O[Si](C)(C)C(C)(C)C)c2=O)cc1 (stereo partly drawn) [Example 1, tert-Butyl (5S,12S)-12-[(R)-[(3R,4R,5R)-3,4-bis{[tert-butyl(dimethyl)silyl]oxy}-5-(3-(4-methoxybenzyl)-2,4-dioxo-3,4-dihydro-1(2H)-pyrimidinyl)tetrahydro-2-furanyl](hydroxy)methyl]-5-[(1S)-1-hydroxy-2-methylpropyl]-3,6-dioxo-1-phenyl-2-oxa-4,7,11-triazatridecan-13-oate] | > 128 | > 128 | > 128 | > 128 | 128 (≈ 123 µM) | > 128 | > 128 | > 128 | 128 (≈ 123 µM) | > 128 | > 128 | > 128 | > 128 | 128 (≈ 123 µM) | > 128 | > 128 | > 128 | > 128 | 128 (≈ 123 µM) | > 128 |  |
| CCOC(=O)C(NCCCNC(=O)[C@@H](NC(=O)[C@H](CCCNC(=N)N[N+](=O)O)NC(=O)N[C@H](C(=O)OCc1ccccc1)C(C)C)C(C)O)C(O)[C@H]1O[C@H](n2ccc(=O)[nH]c2=O)[C@H](OC(C)=O)[C@@H]1OC(C)=O (stereo partly drawn) [Example 34, 16-Benzyl 2-ethyl (1R,9S,12S,16S)-1-[(2R,3R,4R,5S)-3,4-bis(acetyloxy)-5-(2,4-dioxo-3,4-dihydro-1(2H)-pyrimidinyl)tetrahydro-2-furanyl]-12-(3-{[(2,2-dioxido-2lambda˜1˜-diazanyl)(imino)methyl]amino}propyl)-1-hydroxy-9-[(1S)-1-hydroxyethyl]-17-methyl-8,11,14-trioxo-3,7,10,13,15-pentaazaoctadecane-2,16-dicarboxylate] |  |  |  |  |  | > 128 | > 128 |  |  | > 128 |  |  |  |  |  |  |  |  |  |  | MIC [1, 21]: > 128 µg/mL; MIC [2, 22]: > 128 µg/mL; MIC ([3]; E. coli GC 2203, read-out: MIC): > 128 µg/mL; MIC [4, 23]: > 128 µg/mL; MIC [5, 24]: > 128 µg/mL; MIC [8, 25]: > 128 µg/mL; MIC [9, 26]: 128 µg/mL; MIC [11, 27]: > 128 µg/mL; MIC [12, 28]: > 128 µg/mL; MIC [13, 29]: > 128 µg/mL; MIC [14, 30]: 128 µg/mL; MIC [15, 31]: > 128 µg/mL; MIC ([16]; E. coli GC 4560, read-out: MIC): > 128 µg/mL; MIC [17, 32]: 128 µg/mL; MIC ([18]; E. coli GC 3226, read-out: MIC): > 128 µg/mL; MIC [19, 33]: 128 µg/mL; MIC ([20]; E. coli GC 4559, read-out: MIC): > 128 µg/mL |
| CCOC(=O)C(NCCCNC(=O)[C@@H](NC(=O)[C@H](CCCNC(=N)N[N+](=O)O)NC(=O)N[C@H](C(=O)OCc1ccccc1)C(C)C)[C@@H](O)C(C)C)C(O)[C@H]1O[C@@H](n2ccc(=O)[nH]c2=O)[C@H](OC(C)=O)[C@@H]1OC(C)=O (stereo partly drawn) [Example 37, 16-Benzyl 2-ethyl (1R,9S,12S,16S)-1-[(2R,3R,4R,5R)-3,4-bis(acetyloxy)-5-(2,4-dioxo-3,4-dihydro-1(2H)-pyrimidinyl)tetrahydro-2-furanyl]-12-(3-{[(2,2-dioxido-2lambda˜1˜-diazanyl)(imino)methyl]amino}propyl)-1-hydroxy-9-[(1S)-hydroxy-2-methylpropyl]-17-methyl-8,11,14-trioxo-3,7,10,13,15-pentaazaoctadecane-2,16-dicarboxylate] |  |  |  |  |  | > 128 | > 128 |  |  | > 128 |  |  |  |  |  |  |  |  |  |  | MIC [1, 21]: > 128 µg/mL; MIC [2, 22]: > 128 µg/mL; MIC ([3]; E. coli GC 2203, read-out: MIC): > 128 µg/mL; MIC [4, 23]: > 128 µg/mL; MIC [5, 24]: > 128 µg/mL; MIC [8, 25]: > 128 µg/mL; MIC [9, 26]: 128 µg/mL; MIC [11, 27]: > 128 µg/mL; MIC [12, 28]: > 128 µg/mL; MIC [13, 29]: > 128 µg/mL; MIC [14, 30]: > 128 µg/mL; MIC [15, 31]: > 128 µg/mL; MIC ([16]; E. coli GC 4560, read-out: MIC): > 128 µg/mL; MIC [17, 32]: > 128 µg/mL; MIC ([18]; E. coli GC 3226, read-out: MIC): > 128 µg/mL; MIC [19, 33]: > 128 µg/mL; MIC ([20]; E. coli GC 4559, read-out: MIC): > 128 µg/mL |
